Source: US9617225B2 (VIROSTATICS SRL, priority 2012, dated 2017)
pIC50: −log10 of the molar value. Read-outs that look alike come from different tables or passages of the source.

How the values were obtained:
[1] = system: laboratory strain of HIV-1; assay: Antiviral Activity Against HIV (AV), p24 in infected activated primary T cells; type: cell-based; settings: for antiviral and antiproliferative activity and cytotoxicity profile: summary in words; for pIC50: read-out: AV50, Table 5
Protocol: Antiviral Activity Against HIV (AV)
Activated primary T cells are infected with a laboratory strain of HIV-1, then cultured and exposed to different concentrations of the test compounds. HIV replication is analysed by measuring the viral protein p24 and expressed as percentage of untreated control. Inhibition of viral replication (AV) is then calculated (AV=100 minus the % p24 compared to control, AV of control=0%). Inhibitory concentration 50% for antiviral activity (AV50) is calculated.

[2] = target: human CDK9/CyclinT kinase complex (Homo sapiens (Human), UniProt P50750); assay: In Vitro CDK9/CyclinT Assay (IMAP fluorescent polarization); type: biochemical
Sequence of human CDK9/CyclinT kinase complex (P50750 whole entry): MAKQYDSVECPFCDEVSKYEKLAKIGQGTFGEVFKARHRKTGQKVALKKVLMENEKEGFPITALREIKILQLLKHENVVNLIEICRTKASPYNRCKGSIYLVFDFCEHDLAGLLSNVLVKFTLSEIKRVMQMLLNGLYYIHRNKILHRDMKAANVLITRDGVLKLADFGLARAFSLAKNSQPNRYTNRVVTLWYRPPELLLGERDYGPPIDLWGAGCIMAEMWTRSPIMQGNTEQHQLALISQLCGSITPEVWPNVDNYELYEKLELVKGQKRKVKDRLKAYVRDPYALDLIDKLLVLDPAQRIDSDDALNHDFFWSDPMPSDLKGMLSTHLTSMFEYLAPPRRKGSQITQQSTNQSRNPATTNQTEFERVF
Sequence of human CDK9/CyclinT kinase complex (O60563 whole entry partner): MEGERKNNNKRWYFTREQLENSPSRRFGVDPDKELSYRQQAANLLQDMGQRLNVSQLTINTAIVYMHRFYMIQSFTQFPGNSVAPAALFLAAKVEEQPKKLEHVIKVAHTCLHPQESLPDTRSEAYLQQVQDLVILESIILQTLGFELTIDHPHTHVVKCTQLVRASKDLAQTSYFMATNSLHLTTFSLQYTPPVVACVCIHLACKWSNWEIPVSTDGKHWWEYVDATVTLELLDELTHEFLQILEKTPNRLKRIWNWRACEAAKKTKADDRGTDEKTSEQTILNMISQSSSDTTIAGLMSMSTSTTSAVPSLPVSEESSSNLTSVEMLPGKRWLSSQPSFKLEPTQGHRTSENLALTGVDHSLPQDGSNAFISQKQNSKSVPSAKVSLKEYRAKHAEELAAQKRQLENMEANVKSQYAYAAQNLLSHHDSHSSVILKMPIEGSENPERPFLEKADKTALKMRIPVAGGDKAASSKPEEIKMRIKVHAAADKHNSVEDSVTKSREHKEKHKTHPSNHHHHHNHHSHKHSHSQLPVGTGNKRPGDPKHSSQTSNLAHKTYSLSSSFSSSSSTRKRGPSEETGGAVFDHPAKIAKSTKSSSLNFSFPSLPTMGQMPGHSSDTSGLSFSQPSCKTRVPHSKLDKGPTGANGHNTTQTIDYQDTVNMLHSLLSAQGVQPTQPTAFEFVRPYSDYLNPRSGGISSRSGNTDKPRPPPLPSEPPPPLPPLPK
Outline: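 Phosphorylation of 400 nM TAMRA-Rbtide (15-mer retinoblastoma-derived peptide) by 5 nM CDK9/CyclinT with 12 μM ATP (=Kmapp) in 20 mM MOPS pH 7, 1 mM DTT, 10 mM MgCl2, 0.01% Tween 20. Reaction run 1 hour at room temperature, stopped with IMAP beads; read by fluorescence polarization.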

Primary T cells = assay: Cytotoxicity, viability by flow cytometry; type: cell-based
Protocol: Primary T cells are cultured and treated with different concentrations of the test compound. Viability is analysed by measuring through flow cytometry based techniques the percentage of viable cells, compared to untreated control=100%).

SMILES	antiviral and antiproliferative activity and cytotoxicity profile [1]	pIC50 [2]	TD50 (Primary T cells) [µM]	pIC50 ([2]; Table 1)	pIC50 [1]	pIC50 ([2]; Table 5)
COc1ccc(Nc2cc(-c3ccccc3OC)ncn2)cc1Cn1cnc2ccccc21 [Example 31, N-(3-((1H-Benzo[d]imidazol-1-yl)methyl)-4-methoxyphenyl)-6-(2-methoxyphenyl)pyrimidin-4-amine]	good antiviral and antiproliferative activity and a good cytotoxicity profile	> 7.00	1.8	–	–	–
COc1ccc(Nc2cc(-c3ccccc3OC)ncn2)cc1O [Example 32, 2-Methoxy-5-(6-(2-methoxyphenyl)pyrimidin-4-ylamino)phenol]	good antiviral and antiproliferative activity and a good cytotoxicity profile	–	20	> 7.00	–	–
COc1ccc(Nc2cc(-c3ccccc3OC)ncn2)cc1N [Example 41, 4-Methoxy-N1-(6-(2-methoxyphenyl)pyrimidin-4-yl)benzene-1,3-diamine]	good antiviral and antiproliferative activity and a good cytotoxicity profile	> 6.00	8.5	–	–	–
COc1ccccc1-c1cc(Nc2ccc(N(C)C)c(Cn3cnc4ccccc43)c2)ncn1 [Example 42, 2-((1H-Benzo[d]imidazol-1-yl)methyl)-N4-(6-(2-methoxyphenyl)pyrimidin-4-yl)-N1,N1-dimethylbenzene-1,4-diamine]	–	> 6.00	4	–	< 5.30	–
COc1ccc(Nc2cc(-c3ccccc3OC)ncn2)cc1CN [Example 43, N-(3-(Aminomethyl)-4-methoxyphenyl)-6-(2-methoxyphenyl)pyrimidin-4-amine]	good antiviral and antiproliferative activity and a good cytotoxicity profile	> 6.00	2	–	< 6.00	–
COc1ccc(Nc2cc(-c3ccccc3OC)ncn2)cc1C(N)=O [Example 45, 2-methoxy-5-(6-(2-methoxyphenyl)pyrimidin-4-ylamino)benzamide]	good antiviral and antiproliferative activity and a good cytotoxicity profile	> 7.00	15	–	–	–
COc1ccc(Nc2cc(-c3ccccc3OC)ncn2)cc1C(=O)O [Example 49, 2-Methoxy-5-[6-(2-methoxy-phenyl)-pyrimidin-4-ylamino]-benzoic acid]	–	–	>10	> 6.00	< 5.00	> 6.00
COc1cc(Nc2cc(-c3ccccc3OC)ncn2)ccc1N [Example 59, 2-Methoxy-N^4-[6-(2-methoxy-phenyl)-pyrimidin-4-yl]-benzene-1,4-diamine]	–	–	>2	> 6.00	< 5.70	> 6.00
CCOc1ccccc1-c1cc(Nc2ccc(OC)c(N)c2)ncn1 [Example 62, N^1-[6-(2-Ethoxy-phenyl)-pyrimidin-4-yl]-4-methoxy-benzene-1,3-diamine]	good antiviral and antiproliferative activity and a good cytotoxicity profile	–	4	> 6.00	–	–
COc1ccc(Nc2cc(-c3ccc(F)cc3OC)ncn2)cc1N [Example 64]	good antiviral and antiproliferative activity and a good cytotoxicity profile	–	5	> 6.00	–	> 6.00
CCOc1cc(F)ccc1-c1cc(Nc2ccc(OC)c(N)c2)ncn1 [Example 73, N^1-[6-(2-Ethoxy-4-fluoro-phenyl)-pyrimidin-4-yl]-4-methoxy-benzene-1,3-diamine]	good antiviral and antiproliferative activity and a good cytotoxicity profile	–	6	> 6.00	–	–
COc1ccc(Nc2cc(-c3cc(F)ccc3OC)ncn2)cc1N [Example 75, N^1-[6-(5-Fluoro-2-methoxy-phenyl)-pyrimidin-4-yl]-4-methoxy-benzene-1,3-diamine]	good antiviral and antiproliferative activity and a good cytotoxicity profile	–	10	> 6.00	–	–
COc1ccc(Nc2cc(-c3ccccc3OC(C)C)ncn2)cc1N [Example 79, N^1-[6-(2-Isopropoxy-phenyl)-pyrimidin-4-yl]-4-methoxy-benzene-1,3-diamine]	good antiviral and antiproliferative activity and a good cytotoxicity profile	–	15	> 6.00	–	–
COc1ccc(Nc2cc(-c3cc(F)c(F)cc3OC)ncn2)cc1N [Example 83, N^1-[6-(4,5-Difluoro-2-methoxy-phenyl)-pyrimidin-4-yl]-4-methoxy-benzene-1,3-diamine]	good antiviral and antiproliferative activity and a good cytotoxicity profile	–	12	> 6.00	–	–
CCOc1ccc(Nc2cc(-c3ccccc3OC)ncn2)cc1C(N)=O [Example 111, 2-Ethoxy-5-[6-(2-methoxy-phenyl)-pyrimidin-4-ylamino]-benzamide]	good antiviral and antiproliferative activity and a good cytotoxicity profile	–	12	> 6.00	–	–
CCOc1ccc(Nc2cc(-c3ccc(F)cc3OC)ncn2)cc1C(N)=O [Example 112, 2-Ethoxy-5-[6-(4-fluoro-2-methoxy-phenyl)-pyrimidin-4-ylamino]-benzamide]	good antiviral and antiproliferative activity and a good cytotoxicity profile	> 6.00	10	–	–	–
COc1ccc(Nc2cc(-c3ccc(F)cc3OC)ncn2)cc1O [Example 123, 5-[6-(4-Fluoro-2-methoxy-phenyl)-pyrimidin-4-ylamino]-2-methoxy-phenol]	good antiviral and antiproliferative activity and a good cytotoxicity profile	–	7	> 6.00	–	–
COc1ccc(Nc2cc(-c3cc(F)ccc3OC)ncn2)cc1C(N)=O [Example 127, 5-[6-(5-Fluoro-2-methoxy-phenyl)-pyrimidin-4-ylamino]-2-methoxy-benzamide]	good antiviral and antiproliferative activity and a good cytotoxicity profile	> 6.00	7	–	–	–
COc1ccc(Nc2cc(-c3ccc(F)cc3OC)ncn2)cc1C(N)=O [Example 128, 5-[6-(4-Fluoro-2-methoxy-phenyl)-pyrimidin-4-ylamino]-2-methoxy-benzamide]	good antiviral and antiproliferative activity and a good cytotoxicity profile	–	5	> 6.00	–	–
CCOc1ccccc1-c1cc(Nc2ccc(OC)c(C(N)=O)c2)ncn1 [Example 129, 5-[6-(2-Ethoxy-phenyl)-pyrimidin-4-ylamino]-2-methoxy-benzamide]	good antiviral and antiproliferative activity and a good cytotoxicity profile	> 7.00	5	–	–	–
CCOc1cc(F)ccc1-c1cc(Nc2ccc(OC)c(C(N)=O)c2)ncn1 [Example 130, 5-[6-(2-Ethoxy-4-fluoro-phenyl)-pyrimidin-4-ylamino]-2-methoxy-benzamide]	good antiviral and antiproliferative activity and a good cytotoxicity profile	> 7.00	15	–	–	–
CCOc1ccc(F)cc1-c1cc(Nc2ccc(OC)c(C(N)=O)c2)ncn1 [Example 131, 5-[6-(2-Ethoxy-5-fluoro-phenyl)-pyrimidin-4-ylamino]-2-methoxy-benzamide]	good antiviral and antiproliferative activity and a good cytotoxicity profile	–	2	> 6.00	–	–
CNC(=O)c1ccc(Nc2cc(-c3ccccc3OC)ncn2)cc1OC [Example 134, 2-Methoxy-4-[6-(2-methoxy-phenyl)-pyrimidin-4-ylamino]-N-methyl-benzamide]	–	–	>10	> 6.00	< 5.00	> 6.00
COc1cc(Nc2cc(-c3ccccc3OC)ncn2)ccc1C(N)=O [Example 136, 2-Methoxy-4-[6-(2-methoxy-phenyl)-pyrimidin-4-ylamino]-benzamide]	–	–	>2	> 6.00	< 5.70	> 6.00
CCOc1ccccc1-c1cc(Nc2cc(F)c(OC)c(C(N)=O)c2)ncn1 [Example 141, 5-[6-(2-Ethoxy-phenyl)-pyrimidin-4-ylamino]-3-fluoro-2-methoxy-benzamide]	good antiviral and antiproliferative activity and a good cytotoxicity profile	–	>20	> 6.00	–	–
CCOc1ccc(F)cc1-c1cc(Nc2cc(F)c(OC)c(C(N)=O)c2)ncn1 [Example 142, 5-[6-(2-Ethoxy-5-fluoro-phenyl)-pyrimidin-4-ylamino]-3-fluoro-2-methoxy-benzamide]	good antiviral and antiproliferative activity and a good cytotoxicity profile	> 6.00	>20	–	–	–
COc1cc(F)c(Nc2cc(-c3ccccc3OC)ncn2)cc1C(N)=O [Example 143, 4-Fluoro-2-methoxy-5-[6-(2-methoxy-phenyl)-pyrimidin-4-ylamino]-benzamide]	good antiviral and antiproliferative activity and a good cytotoxicity profile	> 6.00	15	–	–	–
